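Values below derive from 48-hour exposures of cells grown in 96-well plates, with endpoints linearly interpolated between the two concentrations bracketing the appropriate inhibition level. Here, GI50 denotes the concentration required for 50% inhibition of growth.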 The source made the active and inactive calls. No stated cut-off is given here; in the data, active = GI50 up to about 1.1 µM and inactive = higher.
Tests used:
Test in all cases: DTP human tumour cell line panel, 48 h
786-0 = test system: 786-0
A498 = test system: A498
A549 = test system: A549
ACHN = test system: ACHN
BT-549 = test system: BT-549
CAKI-1 = test system: CAKI-1
CCRF-CEM = test system: CCRF-CEM
COLO 205 = test system: COLO 205
DU-145 = test system: DU-145
EKVX = test system: EKVX
HCC 2998 = test system: HCC 2998
HCT-116 = test system: HCT-116
HCT-15 = test system: HCT-15
HL-60 = test system: HL-60
HOP-62 = test system: HOP-62
HOP-92 = test system: HOP-92
HT-29 = test system: HT-29
Hs-578T = test system: Hs-578T
IGROV-1 = test system: IGROV-1
KM12 = test system: KM12
LOX IMVI = test system: LOX IMVI
M14 = test system: M14
MCF7 = test system: MCF7
MDA-MB-231 = test system: MDA-MB-231
MDA-MB-435 = test system: MDA-MB-435
MDA-N = test system: MDA-N
MOLT-4 = test system: MOLT-4
Malme-3M = test system: Malme-3M
NCI-H226 = test system: NCI-H226
NCI-H23 = test system: NCI-H23
NCI-H460 = test system: NCI-H460
NCI-H522 = test system: NCI-H522
NCI/ADR-RES = test system: NCI/ADR-RES
OVCAR-3 = test system: OVCAR-3
OVCAR-4 = test system: OVCAR-4
OVCAR-5 = test system: OVCAR-5
OVCAR-8 = test system: OVCAR-8
PC-3 = test system: PC-3
RPMI-8226 = test system: RPMI-8226
RXF 393 = test system: RXF 393
SF-268 = test system: SF-268
SF-295 = test system: SF-295
SF-539 = test system: SF-539
SK-MEL-28 = test system: SK-MEL-28
SK-MEL-2 = test system: SK-MEL-2
SK-MEL-5 = test system: SK-MEL-5
SK-OV-3 = test system: SK-OV-3
SN12C = test system: SN12C
SNB-19 = test system: SNB-19
SNB-75 = test system: SNB-75
SR = test system: SR
SW-620 = test system: SW-620
T47D = test system: T47D
TK-10 = test system: TK-10
U-251 = test system: U-251
UACC-257 = test system: UACC-257
UACC-62 = test system: UACC-62
UO-31 = test system: UO-31
K562 = test system: K562

Cc1ccsc1C(=S)Nc1ccc(Cl)c(/C=N/OC(C)C)c1
GI50 (786-0): 42.5 µM (inactive)
GI50 (A498): 64 µM (inactive)
GI50 (A549): 46.6 µM (inactive)
GI50 (ACHN): 25.2 µM (inactive)
GI50 (BT-549): 67.9 µM (inactive)
GI50 (CAKI-1): 46.3 µM (inactive)
GI50 (CCRF-CEM): 38.1 µM (inactive)
GI50 (COLO 205): 18.7 µM (inactive)
GI50 (DU-145): 92.5 µM (inactive)
GI50 (EKVX): 22.9 µM (inactive)
GI50 (HCC 2998): 22.9 µM (inactive)
GI50 (HCT-116): 27.4 µM (inactive)
GI50 (HCT-15): 15.5 µM
GI50 (HL-60): 10.3 µM (inactive)
GI50 (HOP-62): 64.9 µM (inactive)
GI50 (HOP-92): > 100 µM (inactive)
GI50 (HT-29): 27.5 µM (inactive)
GI50 (Hs-578T): 45.8 µM (inactive)
GI50 (IGROV-1): 25.8 µM (inactive)
GI50 (KM12): 26.4 µM (inactive)
GI50 (LOX IMVI): 29.8 µM (inactive)
GI50 (M14): 37.7 µM (inactive)
GI50 (MCF7): 15.6 µM (inactive)
GI50 (MDA-MB-231): 41.2 µM (inactive)
GI50 (MDA-MB-435): 49.3 µM (inactive)
GI50 (MDA-N): 37.8 µM (inactive)
GI50 (MOLT-4): 11.2 µM (inactive)
GI50 (Malme-3M): 35.1 µM (inactive)
GI50 (NCI-H226): 31.3 µM (inactive)
GI50 (NCI-H23): 20.1 µM (inactive)
GI50 (NCI-H460): 32.7 µM (inactive)
GI50 (NCI-H522): 28.3 µM (inactive)
GI50 (NCI/ADR-RES): 30 µM (inactive)
GI50 (OVCAR-3): 44.8 µM (inactive)
GI50 (OVCAR-4): 14.8 µM (inactive)
GI50 (OVCAR-5): > 100 µM (inactive)
GI50 (OVCAR-8): 44.3 µM (inactive)
GI50 (PC-3): 80.7 µM (inactive)
GI50 (RPMI-8226): 14.7 µM (inactive)
GI50 (RXF 393): 20.5 µM (inactive)
GI50 (SF-268): 86.3 µM (inactive)
GI50 (SF-295): 30.1 µM (inactive)
GI50 (SF-539): > 100 µM (inactive)
GI50 (SK-MEL-28): 67.8 µM (inactive)
GI50 (SK-MEL-2): 55.1 µM (inactive)
GI50 (SK-MEL-5): 25.2 µM (inactive)
GI50 (SK-OV-3): 55.5 µM (inactive)
GI50 (SN12C): 32.5 µM (inactive)
GI50 (SNB-19): 44.5 µM (inactive)
GI50 (SNB-75): 48.2 µM (inactive)
GI50 (SR): 16.3 µM (inactive)
GI50 (SW-620): 34.3 µM (inactive)
GI50 (T47D): 17.8 µM (inactive)
GI50 (TK-10): 65.3 µM (inactive)
GI50 (U-251): 36.6 µM (inactive)
GI50 (UACC-257): 47.9 µM (inactive)
GI50 (UACC-62): 64.1 µM (inactive)
GI50 (UO-31): 21.1 µM (inactive)

O=C(CCC(=O)c1ccc(Cl)cc1)NO
GI50 (786-0): > 100 µM (inactive)
GI50 (A498): > 100 µM (inactive)
GI50 (A549): > 100 µM (inactive)
GI50 (ACHN): > 100 µM (inactive)
GI50 (BT-549): > 100 µM (inactive)
GI50 (CAKI-1): > 100 µM (inactive)
GI50 (CCRF-CEM): > 100 µM (inactive)
GI50 (COLO 205): > 100 µM (inactive)
GI50 (DU-145): > 100 µM (inactive)
GI50 (EKVX): > 100 µM (inactive)
GI50 (HCC 2998): > 100 µM (inactive)
GI50 (HCT-116): > 100 µM (inactive)
GI50 (HCT-15): > 100 µM
GI50 (HL-60): > 100 µM (inactive)
GI50 (HOP-62): > 100 µM (inactive)
GI50 (HOP-92): > 100 µM (inactive)
GI50 (HT-29): > 100 µM (inactive)
GI50 (Hs-578T): > 100 µM (inactive)
GI50 (IGROV-1): > 100 µM (inactive)
GI50 (K562): > 100 µM (inactive)
GI50 (KM12): > 100 µM (inactive)
GI50 (LOX IMVI): > 100 µM (inactive)
GI50 (M14): > 100 µM (inactive)
GI50 (MCF7): > 100 µM (inactive)
GI50 (MDA-MB-231): > 100 µM (inactive)
GI50 (MDA-MB-435): > 100 µM (inactive)
GI50 (MDA-N): > 100 µM (inactive)
GI50 (MOLT-4): > 100 µM (inactive)
GI50 (NCI-H226): > 100 µM (inactive)
GI50 (NCI-H23): > 100 µM (inactive)
GI50 (NCI-H460): > 100 µM (inactive)
GI50 (NCI-H522): > 100 µM (inactive)
GI50 (NCI/ADR-RES): > 100 µM (inactive)
GI50 (OVCAR-3): > 100 µM (inactive)
GI50 (OVCAR-4): > 100 µM (inactive)
GI50 (OVCAR-5): > 100 µM (inactive)
GI50 (OVCAR-8): > 100 µM (inactive)
GI50 (PC-3): > 100 µM (inactive)
GI50 (RPMI-8226): > 100 µM (inactive)
GI50 (RXF 393): > 100 µM (inactive)
GI50 (SF-268): > 100 µM (inactive)
GI50 (SF-295): > 100 µM (inactive)
GI50 (SF-539): > 100 µM (inactive)
GI50 (SK-MEL-28): > 100 µM (inactive)
GI50 (SK-MEL-2): > 100 µM (inactive)
GI50 (SK-MEL-5): > 100 µM (inactive)
GI50 (SK-OV-3): > 100 µM (inactive)
GI50 (SN12C): > 100 µM (inactive)
GI50 (SNB-19): > 100 µM (inactive)
GI50 (SNB-75): > 100 µM (inactive)
GI50 (SR): > 100 µM (inactive)
GI50 (SW-620): > 100 µM (inactive)
GI50 (T47D): > 100 µM (inactive)
GI50 (TK-10): > 100 µM (inactive)
GI50 (U-251): > 100 µM (inactive)
GI50 (UACC-257): > 100 µM (inactive)
GI50 (UACC-62): > 100 µM (inactive)
GI50 (UO-31): > 100 µM (inactive)
